According to ChEMBL document CHEMBL6071189, “Exploring the 1-(4-Nitrophenyl)-3-arylprop-2-en-1-one Scaffold for the Selective Inhibition of Monoamine Oxidase B” (ACS Med Chem Lett, 2024):
Blank lines part the entries; values can stand above or below the molecule they belong to.

Columns and labels:
[1] = biological target: T1, Amine oxidase [flavin-containing] A (Homo sapiens, UniProt P21397); assay: Inhibition of recombinant human MAO-A using tyramine hydrochloride as substrate preincubated for 5 mins followed by substrate addition and measured after 5 mins in presence of horse radish peroxidase by Ampliflu Red based fluorescence microplate reader
T1 sequence (P21397 whole entry): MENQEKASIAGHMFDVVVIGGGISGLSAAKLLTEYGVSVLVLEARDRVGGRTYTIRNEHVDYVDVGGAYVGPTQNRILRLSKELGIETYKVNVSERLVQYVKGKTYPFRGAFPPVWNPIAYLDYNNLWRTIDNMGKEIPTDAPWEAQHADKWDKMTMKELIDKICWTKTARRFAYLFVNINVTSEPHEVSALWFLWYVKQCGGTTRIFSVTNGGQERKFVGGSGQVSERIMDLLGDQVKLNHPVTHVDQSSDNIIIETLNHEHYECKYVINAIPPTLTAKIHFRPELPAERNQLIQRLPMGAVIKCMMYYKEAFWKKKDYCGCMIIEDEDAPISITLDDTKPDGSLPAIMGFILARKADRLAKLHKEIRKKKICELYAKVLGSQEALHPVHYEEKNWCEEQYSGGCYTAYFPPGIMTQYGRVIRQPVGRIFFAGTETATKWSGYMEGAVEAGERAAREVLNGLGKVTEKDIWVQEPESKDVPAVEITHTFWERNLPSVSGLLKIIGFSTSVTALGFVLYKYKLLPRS

[2] = biological target: T2, Amine oxidase [flavin-containing] B (Homo sapiens, UniProt P27338); assay: Inhibition of recombinant human MAO-B using tyramine hydrochloride as substrate preincubated for 5 mins followed by substrate addition and measured after 5 mins in presence of horse radish peroxidase by Ampliflu Red based fluorescence microplate reader
T2 sequence (P27338 whole entry): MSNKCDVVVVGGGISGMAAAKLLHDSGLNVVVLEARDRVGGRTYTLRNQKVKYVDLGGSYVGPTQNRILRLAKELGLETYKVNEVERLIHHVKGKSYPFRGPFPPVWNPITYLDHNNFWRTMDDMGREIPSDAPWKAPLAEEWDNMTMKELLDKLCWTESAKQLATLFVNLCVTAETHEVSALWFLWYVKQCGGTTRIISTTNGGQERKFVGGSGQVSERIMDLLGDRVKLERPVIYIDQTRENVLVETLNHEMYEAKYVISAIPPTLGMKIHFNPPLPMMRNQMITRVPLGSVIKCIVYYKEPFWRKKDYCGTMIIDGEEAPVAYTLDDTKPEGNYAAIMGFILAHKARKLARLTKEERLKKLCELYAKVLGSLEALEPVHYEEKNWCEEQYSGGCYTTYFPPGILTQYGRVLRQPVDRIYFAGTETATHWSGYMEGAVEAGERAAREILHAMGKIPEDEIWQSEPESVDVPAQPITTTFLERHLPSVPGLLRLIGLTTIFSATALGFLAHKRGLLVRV

Homo sapiens = organism: Homo sapiens; assay: Selectivity index, ratio of IC50 for inhibition of recombinant human MAO-A to IC50 for inhibition of recombinant human MAO-B

SMILES: O=C(/C=C/c1ccc2ccccc2c1)c1ccc([N+](=O)[O-])cc1
IC50 [1]: 13000 nM | IC50 [2]: 21 nM | Ratio IC50 (Homo sapiens): 620

SMILES: O=C(/C=C/c1ccc(Cl)c(Cl)c1)c1ccc([N+](=O)[O-])cc1
IC50 [1]: 59000 nM | IC50 [2]: 2.2 nM | Ratio IC50 (Homo sapiens): 27000

SMILES: O=C(/C=C/c1ccc(F)cc1)c1ccc([N+](=O)[O-])cc1
IC50 [1]: 7800 nM | IC50 [2]: 48 nM | Ratio IC50 (Homo sapiens): 160

More lines, in order of falling IC50 [1], values ahead:

IC50 [1]: 89000 nM | IC50 [2]: 120 nM | Ratio IC50 (Homo sapiens): 740
SMILES: Cc1ccccc1/C=C/C(=O)c1ccc([N+](=O)[O-])cc1

IC50 [1]: 52000 nM | IC50 [2]: 10 nM | Ratio IC50 (Homo sapiens): 5200
SMILES: O=C(/C=C/c1ccc(Cl)cc1)c1ccc([N+](=O)[O-])cc1

IC50 [1]: 27000 nM | IC50 [2]: 93 nM | Ratio IC50 (Homo sapiens): 290
SMILES: COc1ccc(/C=C/C(=O)c2ccc([N+](=O)[O-])cc2)cc1

IC50 [1]: 2700 nM | IC50 [2]: 13 nM | Ratio IC50 (Homo sapiens): 210
SMILES: Cc1ccc(/C=C/C(=O)c2ccc([N+](=O)[O-])cc2)cc1
